The supplement of paper PMC10307832

Columns and labels:
Assay in all cases: relative viability (nuclei count vs DMSO), 5 days (fraction); higher = more cells survive
201T = tested on: 201T
In short: (§1)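 Lung cancer cell lines were pin-tool dosed in 1536-well plates on the day after seeding, with either a lone drug or a fixed anchor-drug dose plus five library-drug doses (not always all listed) in √10 steps. Nuclei were counted on 4× images after 5 days. Relative viability is the ratio of treated-well to vehicle-well nuclei counts, with each value a median of duplicate plates.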

ABC-1 = tested on: ABC-1
In short: as §1

BEN = tested on: BEN
In short: as §1

CAL-12T = tested on: CAL-12T
In short: as §1

COR-L 105 = tested on: COR-L 105
In short: as §1

EKVX = tested on: EKVX
In short: as §1

HARA = tested on: HARA
In short: as §1

HCC-366 = tested on: HCC-366
In short: as §1

LK-2 = tested on: LK-2
In short: as §1

LOU-NH91 = tested on: LOU-NH91
In short: as §1

NCI-H1437 = tested on: NCI-H1437
In short: as §1

NCI-H1650 = tested on: NCI-H1650
In short: as §1

NCI-H1666 = tested on: NCI-H1666
In short: as §1

NCI-H2009 = tested on: NCI-H2009
In short: as §1

NCI-H2170 = tested on: NCI-H2170
In short: as §1

NCI-H3122 = tested on: NCI-H3122
In short: as §1

NCI-H441 = tested on: NCI-H441
In short: as §1

NCI-H460 = tested on: NCI-H460
In short: as §1

NCI-H661 = tested on: NCI-H661
In short: as §1

NCI-H727 = tested on: NCI-H727
In short: as §1

PC-14 = tested on: PC-14
In short: as §1

SW 900 = tested on: SW 900
In short: as §1

O=c1cc(N2CCOCC2)oc2c(-c3cccc4c3sc3ccccc34)cccc12 + Cc1cc(Nc2cc(N3CCN(C)CC3)nc(Sc3ccc(NC(=O)C4CC4)cc3)n2)n[nH]1 [Tozasertib] (partner 0.1 µM)
relative viability (201T; first compound 0.01 µM): 0.93 | relative viability (201T; first compound 0.03162 µM): 0.916 | relative viability (201T; first compound 0.1 µM): 0.983 | relative viability (201T; first compound 0.3162 µM): 0.883 | relative viability (201T; first compound 1 µM): 0.881 | relative viability (ABC-1; first compound 0.01 µM): 0.186 | relative viability (ABC-1; first compound 0.03162 µM): 0.178 | relative viability (ABC-1; first compound 0.1 µM): 0.222 | relative viability (ABC-1; first compound 0.3162 µM): 0.21 | relative viability (ABC-1; first compound 1 µM): 0.164 | relative viability (BEN; first compound 0.01 µM): 0.487 | relative viability (BEN; first compound 0.03162 µM): 0.469 | relative viability (BEN; first compound 0.1 µM): 0.482 | relative viability (BEN; first compound 0.3162 µM): 0.463 | relative viability (BEN; first compound 1 µM): 0.531 | relative viability (CAL-12T; first compound 0.01 µM): 0.354 | relative viability (CAL-12T; first compound 0.03162 µM): 0.248 | relative viability (CAL-12T; first compound 0.1 µM): 0.347 | relative viability (CAL-12T; first compound 0.3162 µM): 0.277 | relative viability (CAL-12T; first compound 1 µM): 0.288 | relative viability (COR-L 105; first compound 0.01 µM): 0.346 | relative viability (COR-L 105; first compound 0.03162 µM): 0.286 | relative viability (COR-L 105; first compound 0.1 µM): 0.373 | relative viability (COR-L 105; first compound 0.3162 µM): 0.303 | relative viability (COR-L 105; first compound 1 µM): 0.299 | relative viability (EKVX; first compound 0.01 µM): 0.448 | relative viability (EKVX; first compound 0.03162 µM): 0.332 | relative viability (EKVX; first compound 0.1 µM): 0.441 | relative viability (EKVX; first compound 0.3162 µM): 0.343 | relative viability (EKVX; first compound 1 µM): 0.36 | relative viability (HARA; first compound 0.01 µM): 0.139 | relative viability (HARA; first compound 0.03162 µM): 0.139 | relative viability (HARA; first compound 0.1 µM): 0.477 | relative viability (HARA; first compound 0.3162 µM): 0.103 | relative viability (HARA; first compound 1 µM): 0.128 | relative viability (HCC-366; first compound 0.01 µM): 0.123 | relative viability (HCC-366; first compound 0.03162 µM): 0.125 | relative viability (HCC-366; first compound 0.1 µM): 0.102 | relative viability (HCC-366; first compound 0.3162 µM): 0.211 | relative viability (HCC-366; first compound 1 µM): 0.121 | relative viability (LK-2; first compound 0.01 µM): 0.164 | relative viability (LK-2; first compound 0.03162 µM): 0.161 | relative viability (LK-2; first compound 0.1 µM): 0.17 | relative viability (LK-2; first compound 0.3162 µM): 0.166 | relative viability (LK-2; first compound 1 µM): 0.17 | relative viability (LOU-NH91; first compound 0.01 µM): 0.642 | relative viability (LOU-NH91; first compound 0.03162 µM): 0.65 | relative viability (LOU-NH91; first compound 0.1 µM): 0.655 | relative viability (LOU-NH91; first compound 0.3162 µM): 0.697 | relative viability (LOU-NH91; first compound 1 µM): 0.65 | relative viability (NCI-H1437; first compound 0.01 µM): 0.351 | relative viability (NCI-H1437; first compound 0.03162 µM): 0.406 | relative viability (NCI-H1437; first compound 0.1 µM): 0.428 | relative viability (NCI-H1437; first compound 0.3162 µM): 0.431 | relative viability (NCI-H1437; first compound 1 µM): 0.373 | relative viability (NCI-H1650; first compound 0.01 µM): 0.383 | relative viability (NCI-H1650; first compound 0.03162 µM): 0.416 | relative viability (NCI-H1650; first compound 0.1 µM): 0.392 | relative viability (NCI-H1650; first compound 0.3162 µM): 0.373 | relative viability (NCI-H1650; first compound 1 µM): 0.352 | relative viability (NCI-H1666; first compound 0.01 µM): 0.512 | relative viability (NCI-H1666; first compound 0.03162 µM): 0.56 | relative viability (NCI-H1666; first compound 0.1 µM): 0.579 | relative viability (NCI-H1666; first compound 0.3162 µM): 0.596 | relative viability (NCI-H1666; first compound 1 µM): 0.567 | relative viability (NCI-H2009; first compound 0.01 µM): 0.747 | relative viability (NCI-H2009; first compound 0.03162 µM): 0.704 | relative viability (NCI-H2009; first compound 0.1 µM): 0.8 | relative viability (NCI-H2009; first compound 0.3162 µM): 0.708 | relative viability (NCI-H2009; first compound 1 µM): 0.708 | relative viability (NCI-H2170; first compound 0.01 µM): 0.741 | relative viability (NCI-H2170; first compound 0.03162 µM): 0.673 | relative viability (NCI-H2170; first compound 0.1 µM): 0.758 | relative viability (NCI-H2170; first compound 0.3162 µM): 0.801 | relative viability (NCI-H2170; first compound 1 µM): 0.707 | relative viability (NCI-H3122; first compound 0.01 µM): 0.39 | relative viability (NCI-H3122; first compound 0.03162 µM): 0.418 | relative viability (NCI-H3122; first compound 0.1 µM): 0.417 | relative viability (NCI-H3122; first compound 0.3162 µM): 0.378 | relative viability (NCI-H3122; first compound 1 µM): 0.349 | relative viability (NCI-H441; first compound 0.01 µM): 0.671 | relative viability (NCI-H441; first compound 0.03162 µM): 0.713 | relative viability (NCI-H441; first compound 0.1 µM): 0.692 | relative viability (NCI-H441; first compound 0.3162 µM): 0.658 | relative viability (NCI-H441; first compound 1 µM): 0.719 | relative viability (NCI-H460; first compound 0.01 µM): 0.342 | relative viability (NCI-H460; first compound 0.03162 µM): 0.479 | relative viability (NCI-H460; first compound 0.1 µM): 0.511 | relative viability (NCI-H460; first compound 0.3162 µM): 0.417 | relative viability (NCI-H460; first compound 1 µM): 0.465 | relative viability (NCI-H661; first compound 0.01 µM): 0.367 | relative viability (NCI-H661; first compound 0.03162 µM): 0.356 | relative viability (NCI-H661; first compound 0.1 µM): 0.335 | relative viability (NCI-H661; first compound 0.3162 µM): 0.36 | relative viability (NCI-H661; first compound 1 µM): 0.362 | relative viability (NCI-H727; first compound 0.01 µM): 0.607 | relative viability (NCI-H727; first compound 0.03162 µM): 0.644 | relative viability (NCI-H727; first compound 0.1 µM): 0.673 | relative viability (NCI-H727; first compound 0.3162 µM): 0.632 | relative viability (NCI-H727; first compound 1 µM): 0.673 | relative viability (PC-14; first compound 0.01 µM): 0.567 | relative viability (PC-14; first compound 0.03162 µM): 0.572 | relative viability (PC-14; first compound 0.1 µM): 0.575 | relative viability (PC-14; first compound 0.3162 µM): 0.535 | relative viability (PC-14; first compound 1 µM): 0.577 | relative viability (SW 900; first compound 0.01 µM): 0.505 | relative viability (SW 900; first compound 0.03162 µM): 0.651 | relative viability (SW 900; first compound 0.1 µM): 0.656 | relative viability (SW 900; first compound 0.3162 µM): 0.574 | relative viability (SW 900; first compound 1 µM): 0.548
